Measured values reported in US20230181564A1, “Potent Tetrahydroquinolone Eliminates Apicomplexan Parasites” (The University of Chicago, priority 2020, published 2023).
Values after ≈ are worked out from the molar mass of the structure shown.

Assays:
[1] = tested on: Human Foreskin Fibroblast (HFF); test: Cytotoxicity assay with WST-1 on HFF; type: cell-based; conditions: WST assay, HFF; second value of cell
Method: PBS Sol/Toxicity pH7.4 refers to solubility of the compound in Phosphate Buffered Saline (PBS) at pH7.4. […] Tachy/Brady IC50 was determined in studies in which cultures of parasites in HFF were treated with varying concentrations of the compound and there was 50% inhibition of the replication (number) of parasites. Parasites were RH-YFP expressing tachyzoites (Tachy) and EGS (Brady) strains. Studies of effects of inhibitors on HFF or on T.gondii tachyzoites were performed with triplicate wells in at least two biological replicate experiments. Studies of effects on bradyzoites were performed at least twice in at least two biological replicate experiments. Compounds with much less inhibition of mammalian than T. gondii cytochrome bc in the saffarine enzyme assay (indicated by **) provide potential to further develop compounds, if unanticipated toxicity occurs from JAG21.
Cytotoxicity Assays in parallel with RH Strain T.gondii in vitro studies. Toxicity assays used WST-1 cell proliferation reagent (Roche) as in Fomovska et al. (2012). HFF were grown on a flat, clear-bottomed, black 96-well plate. Confluent HFF were treated with inhibitory compounds at concentrations of 10 μM and 50 μM. Compounds were diluted in IMDM-C, and 20 μL were added to each designated well, with triplicates for each condition. A gradient with 2 fold-decreasing concentrations of DMSO from 10% to 0% in colorless, translucent IMDM-C was used as a control. The plate was incubated for 72 hours at 37° C. 10 μL WST-1 reagent (Roche) were added to each well. Cells were incubated for 30-60 minutes. Absorbance was read using a fluorimeter at 420 nm. A higher degree of color change (and absorbance) indicated mitochondrial activity and cell viability.
Because T. gondii grows inside cells, if a compound were toxic to host HFF then it would make the compound appear to be spuriously effective (Fomovska et al. 2012; Fomovska et al. 2012a), when in actuality only toxicity for the host cell would be measured. Cytotoxicity to HFF was therefore assessed for all compounds at 10 μM. Results of this experiment are in Table 1, toxicity column. A two-way ANOVA and subsequent pairwise comparison found none of the differences in absorbance, compared to the media-DMSO vehicle controls, to be statistically significant (p>0.05). Most of these compounds are not toxic at 10 μM (the limit of solubility) and that cytotoxicity to cells can be attributed to DMSO in the solution, not the compound.

[2] = Kinetic/aqueous solubility in PBS pH 7.4; type: physicochemical; conditions: for PBS Sol pH7.4: solubility in Phosphate Buffered Saline pH 7.4, first value of cell
Method: PBS Sol/Toxicity pH7.4 refers to solubility of the compound in Phosphate Buffered Saline (PBS) at pH7.4. […] Parasites were RH-YFP expressing tachyzoites (Tachy) and EGS (Brady) strains. Studies of effects of inhibitors on HFF or on T.gondii tachyzoites were performed with triplicate wells in at least two biological replicate experiments. Studies of effects on bradyzoites were performed at least twice in at least two biological replicate experiments. Compounds with much less inhibition of mammalian than T. gondii cytochrome bc in the saffarine enzyme assay (indicated by **) provide potential to further develop compounds, if unanticipated toxicity occurs from JAG21.
Structure Activity Relationship (SAR) and comparison of effect on T.gondii and HFF enzyme activity. […] The MDCK-MDR1 Permeability Assay was also performed. […] These were measured by Chem Partners.

[3] = Metabolic stability in mouse liver microsomes; type: in vitro ADME; conditions: predicted half-life in mouse liver microsomes; no unit in table (101 minutes for JAG021)

| PBS Sol pH7.4 [2] [μM] | SMILES | Toxicity* (highest concentration tested that does not show toxicity to HFF) [1] | other results |
| --- | --- | --- | --- |
| – | CSc1nc2[nH]c(C)c(-c3ccc(Oc4ccc(OC(F)(F)F)cc4)cc3)c(=O)n2n1 [JAG013] | ND/5 μM | – |
| 0.45 | Cc1[nH]c2c(c(=O)c1-c1ccc(Oc3ccc(C(F)(F)F)cc3)cc1)CCCC2 [JAG063] | – | T1/2 (M) [3]: 126.96 |
| – | COc1ccc(Oc2ccc(-c3c(C)[nH]c4c(c3=O)CCCC4)cc2)cc1OC [AS033] | ND/5 μM | – |
| – | O=c1[nH]c2c(c(=O)n1-c1ccc(Oc3ccccc3)cc1)CCCC2 [JAG095] | ND/5 μM | – |
| – | Cc1[nH]c2c(c(=O)c1-c1ccc(Oc3ccc(OC(F)(F)F)cc3)cc1)CC(C(F)(F)F)CC2 (stereo not shown) [JAG100] | ND/5 μM | – |
| 0.33 | Cc1[nH]c2c(c(=O)c1-c1ccc(Oc3cccc(Cl)c3)cc1)CCCC2 [JAG062] | – | T1/2 (M) [3]: 12.42 |
| – | Cc1[nH]c2c(C#N)cnn2c(=O)c1-c1ccc(Oc2ccc(OC(F)(F)F)cc2)cc1 [JAG014] | ND/5 μM | – |
| – | Cc1[nH]c2c(c(=O)c1-c1cccc(Oc3ccc(OC(F)(F)F)cc3)c1)CCCC2 [NP032] | ND/5 μM | – |
| 0.94 | Cc1[nH]c2ccnn2c(=O)c1-c1ccc(Oc2ccc(OC(F)(F)F)cc2)cc1 [MJM141] | – | – |
| 0.15 | Cc1[nH]c2ccccc2c(=O)c1-c1ccc(Oc2ccc(OC(F)(F)F)cc2)cc1 [ELQ271, reference compound] | – | solubility ([2]; amorphous compounds): 0.2 µM (≈ 0.0823 µg/mL) |
| 6.25 | Cc1[nH]c2c(c(=O)c1-c1ccc(Oc3cc(Cl)cc(Cl)c3)cc1)CCCC2 [AS022] | – | T1/2 (M) [3]: 28.62 |
| 0.5 | Cc1[nH]c2c(c(=O)c1-c1ccc(Oc3cccc(F)c3)cc1)CCCC2 [JAG069] | – | T1/2 (M) [3]: 17.38 |
| 0.68 | Cc1[nH]c2c(c(=O)c1-c1ccc(Oc3ccc(Cl)c(Cl)c3)cc1)CCCC2 [JAG084] | – | T1/2 (M) [3]: 63.1 |
| 0.02 | Cc1[nH]c2c(c(=O)c1-c1ccc(Oc3ccc(OC(F)(F)F)cc3)cc1)CCC(C(F)(F)F)C2 (stereo not shown) [JAG162] | – | T1/2 (M) [3]: 144.43 |
| – | Cc1[nH]c2c(c(=O)c1-c1cccc(Oc3ccc(Cl)cc3)c1)CCCC2 [NP034] | ND/5 μM | – |
| – | O=c1c2c([nH]c(CO)c1-c1ccc(Oc3ccc(OC(F)(F)F)cc3)cc1)CC(C(F)(F)F)CC2 (stereo not shown) [JAG187] | ND/5 μM | – |
| – | CCOC(=O)Oc1c2c(nc(C)c1-c1ccc(Oc3ccc(OC(F)(F)F)cc3)cc1)CCCC2 [JAG171] | ND/5 μM | – |
| – | Cc1[nH]c2c(c(=O)c1-c1cccc(Oc3ccc(C(F)(F)F)cc3)c1)CCCC2 [NP035] | ND/5 μM | – |
| – | Cc1[nH]c2c(c(=O)c1-c1cccc(Oc3cc(Cl)cc(Cl)c3)c1)CCCC2 [JAG199] | ND/5 μM | – |
| – | Cc1[nH]c2c(c(=O)c1-c1ccc(OCc3ccccc3)cc1)CCCC2 [JAG204] | ND/5 μM | – |
| – | Cc1[nH]c2c(c(=O)c1-c1ccc(O)cc1)CCCC2 [JAG094] | ND/5 μM | – |
| – | Cc1[nH]c2ncnn2c(=O)c1-c1ccc(Oc2ccc(OC(F)(F)F)cc2)cc1 [MJM136] | ND/5 μM | – |

| PBS Sol pH7.4 [2] [μM] | SMILES | Toxicity* (highest concentration tested that does not show toxicity to HFF) [1] | other results |
| --- | --- | --- | --- |
| 0.03 | Cc1[nH]c2c(c(=O)c1-c1ccc(Oc3ccc(OC(F)(F)F)cc3)cc1)CCC(C)C2 (stereo not shown) [JAG107] | – | T1/2 (M) [3]: 111.93 |
| – | Cc1c(-c2ccc(Oc3ccc(Cl)cc3)cc2)c(=O)c2c(n1C)CCCC2 [JAG077] | ND/5 μM | – |
| – | O=C(O)c1[nH]c2c(c(=O)c1-c1ccc(Oc3ccc(OC(F)(F)F)cc3)cc1)CCCC2 [JAG091] | ND/5 μM | – |
| 5.05 | Cc1[nH]c2c(c(=O)c1-c1ccc(Oc3cc(Cl)nc(Cl)c3)cc1)CCCC2 [AS034] | – | T1/2 (M) [3]: 24.93 |
| – | CC1CCc2c([nH]c(CO)c(-c3ccc(Oc4ccc(OC(F)(F)F)cc4)cc3)c2=O)C1 (stereo not shown) [JAG193] | ND/5 μM | – |
| 0.16 | CCC1CCc2c([nH]c(C)c(-c3ccc(Oc4ccc(OC(F)(F)F)cc4)cc3)c2=O)C1 (stereo not shown) [JAG121] | – | T1/2 (M) [3]: 63.28 |
| – | Cc1[nH]c2ccccc2c(=O)c1-c1ccc(Oc2ccccc2)cc1 [MJM129] | ND/5 μM | – |
| – | Cc1[nH]c2c(c(=O)c1-c1ccc(Oc3cc(Cl)cc(Cl)c3)cc1)CCC(C)C2 (stereo not shown) [JAG208] | ND/5 μM | – |
| – | Cc1c(-c2ccc(Oc3ccc(OC(F)(F)F)cc3)cc2)c(=O)c2c(n1C)CCCC2 [JAG023] | ND/5 μM | – |
| – | Cc1[nH]c2c(c(=O)c1-c1cccc(Oc3ccc(F)c(Cl)c3)c1)CCCC2 [JAG200] | ND/5 μM | – |
| – | CCC1CCc2c([nH]c(CO)c(-c3ccc(Oc4ccc(OC(F)(F)F)cc4)cc3)c2=O)C1 (stereo not shown) [JAG174] | ND/5 μM | – |
| – | Cc1cc2[nH]c(C)c(-c3ccc(Oc4ccc(OC(F)(F)F)cc4)cc3)c(=O)n2n1 [JAG006] | ND/5 μM | – |
| 0.55 | Cc1[nH]c2c(c(=O)c1-c1ccc(Oc3cccc(OC(F)(F)F)c3)cc1)CCCC2 [AS006] | – | T1/2 (M) [3]: 25.88 |
| – | Cc1[nH]c2c(c(=O)c1-c1ccc(Oc3ccc(OC(F)(F)F)cc3)cc1)CC(C)CC2 (stereo not shown) [JAG106] | ND/5 μM | – |
| – | Cc1[nH]c2c(c(=O)c1-c1ccc(Oc3ccc(C(=O)O)cc3)nc1)CCCC2 [JAG022] | ND/5 μM | – |
| – | Cc1[nH]c2cc(-c3ccccc3)nn2c(=O)c1-c1ccc(Oc2ccc(OC(F)(F)F)cc2)cc1 [JAG015] | ND/5 μM | – |
| 2 | Cc1[nH]c2c(c(=O)c1-c1ccc(Oc3ccc(F)c(Cl)c3)cc1)CCCC2 [AS021] | – | T1/2 (M) [3]: 41.09 |
| – | Cc1[nH]c2c(c(=O)c1-c1ccc(Oc3ccc(OC(F)(F)F)cc3)nc1)CCCC2 [JAG092] | ND/5 μM | – |
| – | Cc1[nH]c2c(c(=O)c1-c1ccc(Oc3ccc4c(c3)OCO4)cc1)CCCC2 [AS032] | ND/5 μM | – |
| 5.12 | Cc1[nH]c2cnccc2c(=O)c1-c1ccc(Oc2ccc(OC(F)(F)F)cc2)cc1 [JAG129] | – | – |
| 2.38 | Cc1[nH]c2c(c(=O)c1-c1ccc(Oc3ccc(F)cc3)cc1)CCCC2 [JAG058] | – | T1/2 (M) [3]: 39.17 |
| 2.19 | Cc1[nH]c2c(c(=O)c1-c1ccc(Oc3cccc(C(F)(F)F)c3)cc1)CCCC2 [AS012] | – | T1/2 (M) [3]: 30.05 |
